Type in all cases: cell-based, human
The test system of assay [1] is BJ-TERT/LT/ST/RAS^V12 cells. Nature of the assay: Calcein AM viability assay, dilution series, BJ-TERT/LT/ST/RAS^V12 tumorigenic cells. As to the method:
Described here is work carried out to identify compounds with increased potency or activity in the presence of hTERT, LT, ST, E6, E7 or RAS^V12. […] The primary screen tested (in quadruplicate) the effect of treating tumorigenic […], corresponding to 10 μM for a compound with a molecular weight of 400, which is the approximate median molecular weight of the libraries. […] In live cells, calcein AM is cleaved by intracellular esterases, forming the anionic fluorescent derivative calcein, which cannot diffuse out of live cells. […] The IC50 value (concentration required to inhibit 50% of the calcein AM signal) was calculated for each compound in each cell line (Table 1).
Calcein acetoxylmethyl ester (AM) is a cell membrane-permeable, non-fluorescent compound that is cleaved by intracellular esterases to form the anionic, cell-impermeable, fluorescent compound calcein. Viable cells are stained by calcein because of the presence of intracellular esterases and because the intact plasma membrane prevents fluorescent calcein from leaking out of cells (Wang et al., 1993, supra). Cells were seeded in 384-well plates using a Zymark Sciclone ALH, treated with each […], washed with phosphate-buffered saline on a Packard Minitrak with a 384-well washer and incubated for four hours with 0.7 μg/mL calcein (Molecular Probes). Total fluorescence intensity in each well was recorded on a Packard Fusion platereader, and converted to a percent inhibition of signal by subtracting the instrument background and dividing by the average signal obtained when cells were not treated with any compound.
Compounds to be retested were purchased from manufacturers. Stocks were prepared in DMSO at a concentration of 1 mg/ml in 384-well polypropylene plates with a 16-point, two-fold dilution dose curve of each compound in a column, in duplicates. Column 1-2 and 23-24 were left empty for controls. Daughter retest plates were prepared from stock retest plate by diluting 66.6 fold in DMEM in 384-well deep-deep well plates (4.5 μl transfer into 300 μl). Cells were seeded at a density of 6000 per well in 40 μl, and 20 μl was added from a daughter retest plate. […]
The IC50 in primary BJ cells was divided by the IC50 in BJ-TERT/LT/ST/RAS^V12 tumorigenic cells to obtain a tumor selectivity ratio for each compound. The compound selectivity for each genetic element was determined by calculating the selectivity ratio for each subsequent pair of cell lines in a series.

A further assay has as its system BJ cells. Nature of the assay: Calcein AM viability assay, dilution series, BJ primary cells. The conditions noted are these: two days. An excerpt:
Described here is work carried out to identify compounds with increased potency or activity in the presence of hTERT, LT, ST, E6, E7 or RAS^V12. Engineered cell lines with these genetic elements were used to screen 23,550 compounds, including 20,000 compounds from a combinatorial library, 1,990 compounds from the National Cancer Institute diversity collection, and 1,540 biologically active known compounds that were selected and purchased by Applicant and formatted into a screenable collection. […] Cell viability was measured using the dye calcein acetoxymethyl ester (calcein AM) (Wang et al., 1993, Hum. Immunol. 37, 264-270), which is a non-fluorescent compound that freely diffuses into cells. […]
Calcein acetoxylmethyl ester (AM) is a cell membrane-permeable, non-fluorescent compound that is cleaved by intracellular esterases to form the anionic, cell-impermeable, fluorescent compound calcein. […] Total fluorescence intensity in each well was recorded on a Packard Fusion platereader, and converted to a percent inhibition of signal by subtracting the instrument background and dividing by the average signal obtained when cells were not treated with any compound. […]
Mean RFU (relative fluorescence units) for untreated cells was calculated by averaging columns 1, 2, and 23 (wells with cells but lacking compounds). […]

The test system of another assay is caspase 3. Nature of the assay: Western blot for active, cleaved caspase 3. The note with it: lysates of treated BJ-TERT/LT/ST/RAS^V12 cells. The protocol:
BJ-TERT/LT/ST/RAS^V12 cells were seeded prior to the experiment at 5×10^5 cells in 60 mm dishes. The cells were treated with 5 μg/ml erastin (9 μM) for 2, 4, 6, 8 or 10 hours. One dish was maintained for camptothecin treatment (0.4 μg/ml for 24 h) as a positive control. Cells were lysed after each time point in lysis buffer (50 mM HEPES KOH pH 7.4, […], 2 mM EDTA, 0.5% Triton X-100, 1.5 mM Na3VO4, 50 mM NaF, 10 mM sodium pyrophosphate, 10 mM sodium beta-glycerophosphate and protease inhibitor tablet (Roche)). Protein content was quantified using a Biorad protein assay reagent. Equal amounts of protein were resolved on 16% SDS-polyacrylamide gel. The electrophoresed proteins were transblotted onto a PVDF membrane, blocked with 5% milk and incubated with anti-active caspase-3 polyclonal antibody (BD Pharmingen) at 1:1500 dilution overnight at 4° C. The membrane was then incubated in anti-rabbit-HRP (Santa Cruz Biotechnology) at 1:3000 dilution for 1 hour and developed with an enhanced chemiluminescence mixture (NEN life science, Renaissance). To test for equivalent loading in each lane, blots were stripped, blocked, and probed with an anti-eIF-4E antibody (BD Transduction laboratories) at 1:1000 dilution.
Background: A western blot detects proteins with antibodies after separation by electrophoresis.

Assay [2] has as its system BJ-TERT/LT/ST/RAS^V12 cells. As to the kind of experiment: DNA fragmentation (DNA ladder formation).
Assay [3] deals with BJ-TERT/LT/ST/RAS^V12 cells. As to the kind of experiment: Nuclear morphology assay. The conditions noted are these: fluorescence microscopy, 9 μM erastin or 1.1 μM camptothecin, 18 hours. As to the method:
200,000 tumorigenic BJ-TERT/LT/ST/RAS^V12 cells were seeded in 2 mL on glass coverslips in each well of a six-well dish, treated with nothing (NT), 9 μM erastin or 1.1 μM camptothecin (CPT) in growth medium for 18 hours while incubating at 37° C. with 5% CO2. Nuclei were stained with 25 μg/mL Hoechst 33342 (Molecular Probes) and viewed using an oil immersion 100× objective on a fluorescence microscope.

Where only a bound is given, the exact number is not on record here.

With `Cc1c2ccccc2c(CSC(=N)N)c2ccccc12.Cl` [NSC146109], in assay [1] (BJ-TERT/LT/ST/Ras^v12 cells, two days), the “IC50, 50% inhibition of calcein AM staining, BJ-TERT/LT/ST/Ras^v12” value was 2.5 µg/mL. Also, in assay [1] (IC50 in primary BJ cells divided by IC50 in BJ-TERT/LT/ST/RAS^V12 tumorigenic cells), the “Tumor Selectivity” value is given as more than 4. Also, in the assay with BJ cells, the “IC50, concentration required to achieve 50% inhibition of calcein AM staining, BJ” value was more than 5 µg/mL.

As to `CC[C@@]1(O)C(=O)OCc2c1cc1n(c2=O)Cc2cc3ccccc3nc2-1` [Camptothecin, camptothecin], in the assay on caspase 3, the “activated (cleaved) caspase 3” value is recorded as “harbor activated caspase 3”. Besides, the “time required to cause death” value in assay [1] (BJ-TERT/LT/ST/RAS^V12 cells) was “two days”. The “DNA fragmentation (formation of a DNA ladder)” value in assay [2] is reported as “induces DNA fragmentation”. The “nuclear morphology (karyorhexis, margination of chromatin)” value in assay [3] was “karyorhexis and margination of chromatin were clearly visible”.
